Laboratory results from patent publication US20260216134A1, “CHARGED PI-CONJUGATED MOLECULES FOR THE TREATMENT OF MICROBIAL INFECTIONS” (priority 2023, published 2026).
Entries after “also recorded” stand apart in the source; their conditions may differ.

How the values were obtained:
A375 tumors = experiment: Intratumoral injection into A375 tumors in mice; format: in vivo
Experimental: Cy7.5-amine was intratumorally injected at the dose of 8 μg (equivalent to 50 μL of 200 μM Cy7.5-amine solution in PBS containing 2.5% DMSO. As control 50 μL of 2.5% DMSO in PBS solution was injected intratumorally. The blue dots indicate the days when the tumors were treated.
Then we applied Cy7.5-amine (FIG. 22C) by intratumoral injection into A375 tumors as described in FIG. 33.

Gram-positive strains = experiment: MIC / MIC50 by broth microdilution in panel of Gram-positive strains; format: cell-based; conditions: MIC50 over all Gram-positive strains tested (Table 2)
Experimental: Antibacterial activity was assessed by determining the minimal inhibitory concentration (MIC) and the minimal bactericidal concentrations (MBC) and by monitoring time-dependent bacterial killing of exponentially growing cells. Bacterial cell suspensions (OD600≈0.02 in cation-adjusted Muller-Hinton Broth) were treated with increasing concentrations of the different molecules. The minimal inhibitory concentration (MIC) was defined as the minimal concentration of the molecule resulting in complete bacterial growth arrest. The minimal bactericidal concentration (MBC) was defined as the lowest concentration of the molecule that killed 99.9% of the inoculum. A molecule was determined to be bactericidal if the ratio of the MBC to the MIC was less than 4 to 6. […] In M. smegmatis, the antibacterial activity of charged pi-conjugated compounds was generally lower.
The MIC values for all Gram-positive strains tested (Table 2) were used to calculate the MIC50, i.e., the minimum inhibitory concentration needed to inhibit the growth of 50% of the tested isolates (FIG. 5A). […] When the average MIC50 values were evaluated, the most susceptible bacterial genera were Streptococcus sp., followed by Staphylococcus sp. In contrast, Propionibacterium sp. had the highest average MIC50 (FIG. 5B).
The broth microdilution method was used to determine the MIC of charged pi-conjugated compounds according to the CLSI guidelines. Charged pi-conjugated compound stock solutions (16 mM) were prepared in dimethyl sulfoxide (DMSO). Serial twofold dilutions of the charged pi-conjugated compounds were freshly prepared using the appropriate liquid media (Table 2), and 100 μL of each dilution was added to the appropriate wells of 96-well microtiter plates. The bacterial inoculum was further diluted in liquid media, and 100 μL was added to each well, resulting in a final cell density of ≈5×10^5 CFU mL^−1. […] A molecule was determined to be bactericidal if the ratio of the MBC to the MIC was less than 4 to 6. […]

[1] = system: A375 cancer cells (melanoma); experiment: Crystal violet cytotoxicity test in A375 cells without light activation; format: cell-based, human
Experimental: The inhibitory concentration of charged pi-conjugated compounds needed to inhibit the cell growth by 50% (toxicity IC50).
Most of the charged pi-conjugated compounds are aminocyanines which are functionalized with alkyl amine group. The charged pi-conjugated compounds were added to cell cultures of A375 cancer cells (human melanoma) and their cytotoxicity was quantified by the crystal violet test and/or clonogenic assays for cell viability. […] The longer the exposure the most cytotoxic the charged pi-conjugated compounds are towards A375 cells. […] The same behavior is observed: the longer the exposure, the more cytotoxic. All molecules presented here are aminocyanines except GL-261-2 which is a carboxyl-cyanine. […] This was the first time a therapeutic window of concentration that can be tuned to selectively kill cancer and/or protect cells was suspected. In finding this therapeutic window concentration and time of exposure are important variables that should be fine tuned.
Based on the finding described above, a larger set of charged pi-conjugated compounds was evaluated for cytotoxicity against A375 cancer cells as shown in FIG. 25 and FIG. 26.
The IC50 is the concentration needed to inhibit the cell viability by 50%. These molecules in FIG. 25 and FIG. 26 were evaluated by crystal violet assay and using 2 days of exposure.

MRSA USA300 = experiment: Therapeutic index calculation (IC50 of mammalian cell lines / MIC); conditions: ratio of average IC50 for A549 and HEK293 to MIC in MRSA USA300
Experimental: (§1) The biocompatibility of charged pi-conjugated compounds with mammalian cell lines was evaluated by studying the effects of different charged pi-conjugated compound concentrations on the viability of two mammalian cell lines: A549 (epithelial-like lung cells) and HEK293 (epithelial-like kidney cells). […] Dose-response curves were used to determine IC50 values, that is, the concentration of charged pi-conjugated compound needed to inhibit cell viability by 50%. […] The MIC of MRSA USA300 was used to calculate the therapeutic index. MRSA USA300 is a major contributor to community-associated MRSA infections, including skin and soft tissue infections, bacteraemia, endocarditis, bone and joint infections and nosocomial infections. […]
(§2) The biocompatibility of charged pi-conjugated compounds with mammalian cell lines was assessed by determining their impact on the mitochondrial activity of human alveolar basal epithelial adenocarcinoma cells (A549) and human embryonic kidney cells (HEK293T) cells, using the Presto Blue assay according to the manufacturer's protocol. […] After 8 h, Presto Blue cell viability reagent (Thermo Fisher Scientific, Waltham, MA, USA) was added to the cells, and after 2 h of incubation, fluorescence was measured using a microplate reader (BioTek Instruments Inc., Winooski, VT, USA). […] The therapeutic index was calculated from the ratio between IC50 and the MIC.

[2] = system: HEK293 (epithelial-like kidney cells); experiment: Presto Blue viability assay, HEK293; format: cell-based, human; conditions: HEK293, Presto Blue, 8 h treatment; read-out: IC50 (concentration needed to inhibit cell viability by 50%)
Experimental: as §1, §2

C[N+]1=C(/C=C/C2=CC(=C/C=C3/N(CCCCCC(=O)NCCCCCCN)c4ccc5ccccc5c4C3(C)C)/CCC2)C(C)(C)c2c1ccc1ccccc21.Cl.[Cl-] [Cy7.5-amine, Cyanine 7.5-amine]
mice free of cancer (A375 tumors; after 7 months of the study): 2 out of 10
loss of A375 tumors (A375 tumors; intratumoral 8 μg (50 μL of 200 μM), n=10 mice): 20%
toxicity to the mice (body weight relative to control) (A375 tumors; intratumoral 200 μM, control 2.5% DMSO): no sign of toxicity; also recorded: does not cause change of the mice body weight
antibacterial activity according to MIC50 (Gram-positive strains): strongest antibacterial activity
IC50 [1]: 0.5 µM
cytotoxicity at short exposure [1]: safe and showed low cytotoxicity
therapeutic index (MRSA USA300): 1.3
IC50 [2]: 6.3 µM
